Measured values reported in US9889170B1, “Synthesis of nanoparticles using Balanites aegyptiaca” (KING SAUD UNIVERSITY, priority 2016, dated 2018).

Experiments:
Assay in all cases: Agar well diffusion assay
Assay type in all cases: cell-based
[1] = system: Escherichia coli (RCMB 010052); settings: 100 μl per well, mean ± SD
Experimental: (§1) Antimicrobial activity of nanoparticles was determined using the agar well diffusion assay method as described by Holder and Boyce, 1994. Three bacterial (two gram positive and one gram negative) and […], namely, Bacillis suhtilis (RCMB 010067), […] pneumoniae (RCMB 010011), Escherichia coli (RCMB 010052), and Aspergillus fumigatus (RCMB 02568). The tested organisms were sub-cultured on nutrient agar medium (Oxoid laboratories, UK) for bacteria and Sabouraud dextrose agar (Oxoid laboratories, UK) for fungi. Ampicillin and Gentamicin were used as positive control for gram positive and gram negative bacteria, respectively, while Amphotericin B was used for fungi. The plates were done in triplicates. Bacterial cultures were incubated at 37° C. for 24 h, while the fungal cultures were incubated at 25-30° C. for 3-7 days. Antimicrobial activity was determined by measuring the zone of inhibition [A. Agwa, (2000)]. The antimicrobial effect of the B. aegyptiaca nanoparticles was evaluated against different gram positive and gram negative bacteria as well as fungi. The results of the antimicrobial effects of the synthesized nanoparticles are compiled in the Tables below.

[2] = system: Pseudomonas aeruginosa (RCMB 010043); settings: 100 μl per well, mean ± SD
[3] = system: Salmonella typhimurium (RCMB 010072); settings: 100 μl per well, mean ± SD
[4] = system: Klebsiella pneumoniae (RCMB 000111); settings: 100 μl per well, mean ± SD
[5] = system: Escherichia coli (RCMB 010054); settings: samples at 100 μl, mean ± SD
[6] = system: Staphylococcus aureus (RCMB 010028); settings: 100 μl per well, mean ± SD
[7] = system: Bacillis subtilis (RCMB 010067); settings: 100 μl per well, mean ± SD
Experimental: as §1

[8] = system: Bacillis subtilis (RCMB 010068); settings: samples at 100 μl, mean ± SD
Experimental: as §1

[9] = system: Streptococcus pneumoniae (RCMB 010011); settings: samples at 100 μl, mean ± SD
Experimental: as §1

[10] = system: Geotricum candidum (RCMB 05097); settings: 100 μl per well, mean ± SD
[11] = system: Aspergillus fumigatus (RCMB 02567); settings: samples at 100 μl, mean ± SD
Experimental: as §1

[12] = system: Aspergillus fumigatus (RCMB 02568); settings: 100 μl per well, mean ± SD
Experimental: as §1

Gentamicin
Mean zone of inhibition beyond well diameter (6 mm) [1]: 22.3 ± 0.18 mm
Mean zone of inhibition beyond well diameter (6 mm) [2]: 17.3 ± 0.15 mm
Mean zone of inhibition beyond well diameter (6 mm) [3]: 25.4 ± 0.18 mm
Mean zone of inhibition beyond well diameter (6 mm) [4]: 20.2 ± 0.25 mm
Diameter of the inhibition zone beyond the well diameter of 6 mm [5]: 20.3 ± 0.58 mm

CC1(C)S[C@@H]2[C@H](NC(=O)[C@H](N)c3ccccc3)C(=O)N2[C@H]1C(=O)O [Ampicillin]
Mean zone of inhibition beyond well diameter (6 mm) [6]: 27.4 ± 0.18 mm
Mean zone of inhibition beyond well diameter (6 mm) [7]: 32.4 ± 0.10 mm
Diameter of the inhibition zone beyond the well diameter of 6 mm [8]: 31.3 ± 1.5 mm
Diameter of the inhibition zone beyond the well diameter of 6 mm [9]: 21.0 ± 1.0 mm

C[C@@H]1[C@H](O)[C@@H](C)/C=C/C=C/C=C/C=C/C=C/C=C/C=C/[C@H](O[C@@H]2O[C@H](C)[C@@H](O)[C@H](N)[C@@H]2O)C[C@@H]2O[C@](O)(C[C@@H](O)C[C@@H](O)[C@H](O)CC[C@@H](O)C[C@@H](O)CC(=O)O[C@H]1C)C[C@H](O)[C@H]2C(=O)O [Amphotericin B]
Mean zone of inhibition beyond well diameter (6 mm) [10]: 28.7 ± 0.22 mm
Diameter of the inhibition zone beyond the well diameter of 6 mm [11]: 21.7 ± 1.5 mm
Mean zone of inhibition beyond well diameter (6 mm) [12]: 23.7 ± 0.10 mm
